Target: T1, human NOX4 (Homo sapiens, UniProt Q9NPH5)
T1 construct: expressed in transfected cells; membrane fraction used
T1 sequence (Q9NPH5 1-578): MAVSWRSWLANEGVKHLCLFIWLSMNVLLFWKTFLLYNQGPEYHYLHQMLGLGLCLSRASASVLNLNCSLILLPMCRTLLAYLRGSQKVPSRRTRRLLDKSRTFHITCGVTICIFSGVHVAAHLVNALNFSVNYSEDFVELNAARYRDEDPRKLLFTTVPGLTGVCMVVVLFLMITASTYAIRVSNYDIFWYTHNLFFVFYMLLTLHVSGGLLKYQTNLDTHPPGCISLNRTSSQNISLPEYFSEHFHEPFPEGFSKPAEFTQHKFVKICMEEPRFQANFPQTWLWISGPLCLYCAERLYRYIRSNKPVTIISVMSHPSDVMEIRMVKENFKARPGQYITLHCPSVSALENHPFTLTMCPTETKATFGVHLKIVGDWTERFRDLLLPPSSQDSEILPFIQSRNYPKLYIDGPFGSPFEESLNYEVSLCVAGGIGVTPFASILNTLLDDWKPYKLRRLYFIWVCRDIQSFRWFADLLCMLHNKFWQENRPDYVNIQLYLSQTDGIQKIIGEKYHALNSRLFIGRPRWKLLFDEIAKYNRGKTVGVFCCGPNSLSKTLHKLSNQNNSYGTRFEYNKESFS
T1 sequence (P13498 1-195 partner): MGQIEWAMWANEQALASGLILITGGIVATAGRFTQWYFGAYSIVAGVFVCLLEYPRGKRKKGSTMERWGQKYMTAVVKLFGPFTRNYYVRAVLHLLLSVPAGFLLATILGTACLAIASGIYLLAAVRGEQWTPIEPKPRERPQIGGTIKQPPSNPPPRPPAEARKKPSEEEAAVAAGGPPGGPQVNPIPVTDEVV
Assay: Cell free membrane based in vitro NOX4 assay: H2O2 production by membranes expressing human NOX4, measured with Amplex Red
Assay type: biochemical
Settings: for inhibition at 1 µM: 1.0 μM compound, read-out: Percentage inhibition at 1.0 μM; for inhibition at 10 µM: 10.0 μM compound, read-out: Percentage inhibition at 10.0 μM; for IC50: class symbols
Procedure, shortened: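 Membranes from HEK cells stably overexpressing human NOX4 were preincubated 20 min with inhibitor in pH 7.4 HEPES buffer containing HRP and Amplex Red, then NADPH was added. H2O2 was followed for 10 min by fluorescence (ex 544/em 590 nm). IC50 from nonlinear regression of % maximal uninhibited response.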

Row | SMILES | inhibition at 1 µM | inhibition at 10 µM | IC50
1 | CC(C)N1CCN(Cc2nn(C)c3[nH]c(-c4c(F)cccc4F)c(O)c(=O)c23)CC1 [Example 192, 6-(2,6-Difluorophenyl)-5-hydroxy-3-((4-isopropylpiperazin-1-yl)methyl)-1-methyl-1H-pyraazolo[3,4-b]pyridin-4(7H)-one] | 90.6% | 95.3% | 50 to 100 nM
2 | Cn1nc(C2CCN(S(C)(=O)=O)CC2)c2c(=O)c(O)c(-c3ccccc3Cl)[nH]c21 [Example 194, 6-(2-chlorophenyl)-5-hydroxy-1-methyl-3-(1-(methylsulfonyl)piperidin-4-yl)-1H-pyrazolo[3,4-b]pyridin-4(7H)-one] | 98.3% | 96% | 50 to 100 nM
3 | Cn1nc(CN2CC[C@H](F)C2)c2c(=O)c(O)c(-c3c(F)cccc3F)[nH]c21 [Example 195, (S)-6-(2,6-Difluorophenyl)-3-((3-fluoropyrrolidin-1-yl)methyl)-5-hydroxy-1-methyl-1H-pyrazolo[3,4-b]pyridin-4(7H)-one] | 97.7% | 100% | 100 to 150 nM
4 | CCc1nn(CCN2C[C@@H](C)O[C@@H](C)C2)c2[nH]c(-c3c(F)cccc3F)c(O)c(=O)c12 [Example 200, 6-(2,6-Difluorophenyl)-1-(2-((2R,6S)-2,6-dimethylmorpholino)ethyl)-3-ethyl-5-hydroxy-1H-pyrazolo[3,4-b]pyridin-4(7H)-one] | 91.4% | 90.7% | < 50 nM
5 | O=c1c(O)c(-c2c(F)cccc2F)[nH]c2c1c(CN1CCOCC1)nn2C1CC1 [Example 201, 1-Cyclopropyl-6-(2,6-difluorophenyl)-5-hydroxy-3-(morpholinomethyl)-1H-pyrazolo[3,4-b]pyridin-4(7H)-one] | 74% | 87% | > 150 nM
6 | CCc1nn(CCO)c2[nH]c(-c3c(F)cccc3F)c(O)c(=O)c12 [Example 203, 6-(2,6-Difluorophenyl)-3-ethyl-5-hydroxy-1-(2-hydroxyethyl)-1H-pyrazolo[3,4-b]pyridin-4(7H)-one] | 82.5% | 77.7% | 50 to 100 nM
7 | CCc1nn(CCCN2C[C@@H](C)O[C@@H](C)C2)c2[nH]c(-c3c(F)cccc3F)c(O)c(=O)c12 [Example 206, 6-(2,6-Difluorophenyl)-1-(3-((2R,6S)-2,6-dimethylmorpholino)propyl)-3-ethyl-5-hydroxy-1H-pyrazolo[3,4-b]pyridin-4(7H)-one] | 94.6% | 91.3% | 50 to 100 nM
8 | CCc1nn(CC2CCOCC2)c2[nH]c(-c3ccccc3Cl)c(O)c(=O)c12 [Example 208, 6-(2-Chlorophenyl)-3-ethyl-5-hydroxy-1-((tetrahydro-2H-pyran-4-yl)methyl)-1H-pyrazolo[3,4-b]pyridin-4(7H)-one] | 82.5% | 71.6% | 100 to 150 nM
9 | Cn1nc(CC2CCOCC2)c2c(=O)c(O)c(-c3c(F)cccc3F)[nH]c21 [Example 209, 6-(2,6-Difluorophenyl)-5-hydroxy-1-methyl-3-((tetrahydro-2H-pyran-4-yl)methyl)-1H-pyrazolo[3,4-b]pyridin-4(7H)-one] | 89.5% | 89.8% | 50 to 100 nM
10 | CCc1nn(CCC2CCOCC2)c2[nH]c(-c3c(F)cccc3F)c(O)c(=O)c12 [Example 211] | 92.4% | 93.7% | 50 to 100 nM
11 | CCc1nn(CCC2CCOCC2)c2[nH]c(-c3ccccc3Cl)c(O)c(=O)c12 [Example 212, 6-(2-Chlorophenyl)-3-ethyl-5-hydroxy-1-(2-(tetrahydro-2H-pyran-4-yl)ethyl)-1H-pyrazolo[3,4-b]pyridin-4(7H)-one] | 81.5% | 71.7% | > 150 nM
12 | CCc1nn(CCC2CCOCC2)c2[nH]c(-c3cccc(C(F)(F)F)c3F)c(O)c(=O)c12 [Example 213, 3-Ethyl-6-(2-fluoro-3-(trifluoromethyl)phenyl)-5-hydroxy-1-(2-(tetrahydro-2H-pyran-4-yl)ethyl)-1H-pyrazolo[3,4-b]pyridin-4(7H)-one] | 86.9% | 75.6% | > 150 nM

Results, then the molecule that gave them:

Row | inhibition at 1 µM | inhibition at 10 µM | IC50 | SMILES
13 | 99.2% | 98.6% | < 50 nM | Cn1nc(C2CCOCC2)c2c(=O)c(O)c(-c3c(F)cccc3F)[nH]c21 [Example 189, 6-(2,6-Difluorophenyl)-5-hydroxy-1-methyl-3-(tetrahydro-2H-pyran-4-yl)-1H-pyrazolo[3,4-b]pyridin-4(7H)-one]
14 | 93.1% | 100% | < 50 nM | O=c1c(O)c(-c2c(F)cccc2F)[nH]c2c1c(C1CCOCC1)nn2C1CC1 [Example 190, 1-Cyclopropyl-6-(2,6-difluorophenyl)-5-hydroxy-3-(tetrahydro-2H-pyran-4-yl)-1H-pyrazolo[3,4-b]pyridin-4(7H)-one]
15 | 91.2% | 97.8% | 50 to 100 nM | Cn1nc(CN2CCOCC2)c2c(=O)c(O)c(-c3c(F)cccc3F)[nH]c21 [Example 191, 6-(2,6-difluorophenyl)-5-hydroxy-1-methyl-3-(morpholinomethyl)-1H-pyrazolo[3,4-b]pyridin-4(7H)-one]
16 | 84.7% | 75.4% | < 50 nM | Cn1nc(C2CCOCC2)c2c(=O)c(O)c(-c3ccccc3Cl)[nH]c21 [Example 193, 6-(2-Chlorophenyl)-5-hydroxy-1-methyl-3-(tetrahydro-2H-pyran-4-yl)-1H-pyrazolo[3,4-b]pyridin-4(7H)-one]
17 | 100% | 100% | 100 to 150 nM | Cn1nc(CN2CCN(CC(F)(F)F)CC2)c2c(=O)c(O)c(-c3c(F)cccc3F)[nH]c21 [Example 196, 3-((4-(2,2,2-trifluoroethyl)piperazin-1-yl)methyl)-6-(2,6-difluorophenyl)-5-hydroxy-1-methyl-1H-pyrazolo[3,4-b]pyridin-4(7H)-one]
18 | 100% | 100% | 100 to 150 nM | C[C@@H]1CN(Cc2nn(C)c3[nH]c(-c4c(F)cccc4F)c(O)c(=O)c23)C[C@H](C)O1 [Example 197, 6-(2,6-Difluorophenyl)-3-((2,6-dimethylmorpholino)methyl)-5-hydroxy-1-methyl-1H-pyrazolo[3,4-b]pyridin-4(7H)-one]
19 | 87.7% | 86.7% | 50 to 100 nM | Cn1nc(CO)c2c(=O)c(O)c(-c3ccccc3Cl)[nH]c21 [Example 198, 6-(2-Chlorophenyl)-5-hydroxy-3-(hydroxymethyl)-1-methyl-1H-pyrazolo[3,4-b]pyridin-4(7H)-one]
20 | 86.8% | 93.5% | 100 to 150 nM | Cn1nc(CN2CCOCC2)c2c(=O)c(O)c(-c3ccccc3Cl)[nH]c21 [Example 199, 6-(2-Chlorophenyl)-5-hydroxy-1-methyl-3-(morpholinomethyl)-1H-pyrazolo[3,4-b]pyridin-4(7H)-one]
21 | 82.8% | 78% | 100 to 150 nM | CCc1nn(CCN2C[C@@H](C)O[C@@H](C)C2)c2[nH]c(-c3ccccc3Cl)c(O)c(=O)c12 [Example 202, 6-(2-Chlorophenyl)-1-(2-((2R,6S)-2,6-dimethylmorpholino)ethyl)-3-ethyl-5-hydroxy-1H-pyrazolo[3,4-b]pyridin-4(7H)-one]
22 | 95.2% | 99.7% | 100 to 150 nM | O=c1c(O)c(-c2c(F)cccc2F)[nH]c2c1c(C1CCOCC1)nn2-c1ccc(F)cc1 [Example 204, 6-(2,6-Difluorophenyl)-1-(4-fluorophenyl)-5-hydroxy-3-(tetrahydro-2H-pyran-4-yl)-1H-pyrazolo[3,4-b]pyridin-4(7H)-one]
23 | 95.9% | 94.6% | 50 to 100 nM | CCc1nn(CCN2CCC(F)(F)CC2)c2[nH]c(-c3c(F)cccc3F)c(O)c(=O)c12 [Example 205, 6-(2,6-Difluorophenyl)-1-(2-(4,4-difluoropiperidin-1-yl)ethyl)-3-ethyl-5-hydroxy-1H-pyrazolo[3,4-b]pyridin-4(7H)-one]
24 | 87.8% | 88.2% | 50 to 100 nM | CCc1nn(CC2CCOCC2)c2[nH]c(-c3c(F)cccc3F)c(O)c(=O)c12 [Example 207, 6-(2,6-Difluorophenyl)-3-ethyl-5-hydroxy-1-((tetrahydro-2H-pyran-4-yl)methyl)-1H-pyrazolo[3,4-b]pyridin-4(7H)-one]
25 | 91% | 86.3% | > 150 nM | CCc1nn(CCN2CCC(F)(F)CC2)c2[nH]c(-c3ccccc3Cl)c(O)c(=O)c12 [Example 210, 6-(2-Chlorophenyl)-1-(2-(4,4-difluoropiperidin-1-yl)ethyl)-3-ethyl-5-hydroxy-1H-pyrazolo[3,4-b]pyridin-4(7H)-one]
